Results from patent US10287275B2, “16-member triamilide derivatives and uses thereof” (VICTOR PHARMA CO., LTD. ZHENJIANG, priority 2015, dated 2019).
Values after ≈ are worked out from the molar mass of the structure shown.

Experiments:
Assay type in all cases: cell-based
[1] = system: Escherichia coli 25922 (QC strain); assay: Antibacterial MIC, agar-dilution or broth-dilution microtiter test; settings: Strain F: Escherichia coli 25922 (QC strain)
Method: (§1) The MIC's in Table I and Table II were determined by standard agar-dilution assays or broth-dilution microtiter test.

[2] = system: Staphylococcus aureus 5-1; assay: as above; settings: 51; Strain G: Staphylococcus aureus 5-1
Method: as §1

[3] = system: Actinobacillus pleuropneumoniae serotype 7; assay: as above; settings: Strain B: Actinobacillus pleuropneumoniae serotype 7
Method: as §1

[4] = system: Klebsiella pneumoniae 3699; assay: as above; settings: Strain K: Klebsiella pneumoniae 3699
Method: as §1

Pasteurella 8229 = assay: as above; settings: Strain D: Pasteurella 8229
Method: as §1

Pasteurella 8217 = assay: as above; settings: Strain C: Pasteurella 8217
Method: as §1

Escherichia coli IN-F6-7 = assay: as above; settings: INF67; Strain E: Escherichia coli IN-F6-7
Method: as §1

[5] = system: Actinobacillus pleuropneumoniae serotype 1; assay: as above; settings: Strain A: Actinobacillus pleuropneumoniae serotype 1
Method: as §1

[6] = system: Staphylococcus aureus 29213 (QC strain); assay: as above; settings: Strain H: Staphylococcus aureus 29213 (QC strain)
Method: as §1

[7] = system: Klebsiella pneumoniae 3753; assay: as above; settings: Strain J: Klebsiella pneumoniae 3753
Method: as §1

[8] = system: Streptococcus pneumoniae 2349; assay: as above; settings: Strain L: Streptococcus pneumoniae 2349
Method: as §1

salmonella LD4-8 = assay: as above; settings: LD48; Strain I: salmonella LD4-8
Method: as §1

[9] = system: Streptococcus pneumoniae 49619 (QC strain); assay: as above; settings: Strain M: Streptococcus pneumoniae 49619 (QC strain)
Method: as §1

M. gallisepticum S6 = assay: Mycoplasma susceptibility testing (MIC); settings: Mycoplasmoides gallisepticum
Method: as §1

M. gallisepticum BG44T = assay: Mycoplasma susceptibility testing (MIC); settings: Mycoplasmoides gallisepticum
Method: as §1

M. hyorinis BTS-7 = assay: Mycoplasma susceptibility testing (MIC)
Method: as §1

| SMILES | MIC [1] | MIC [2] | MIC [3] | MIC [4] | MIC (Pasteurella 8229) | MIC (Pasteurella 8217) | MIC (Escherichia coli IN-F6-7) | MIC [5] | MIC [6] | MIC [7] | MIC [8] | MIC (salmonella LD4-8) | MIC [9] | MIC (M. gallisepticum S6) | MIC (M. gallisepticum BG44T) | MIC (M. hyorinis BTS-7) |
| --- | --- | --- | --- | --- | --- | --- | --- | --- | --- | --- | --- | --- | --- | --- | --- | --- |
| CC[C@H]1OC(=O)C[C@@H](O)[C@H](C)[C@@H](O[C@@H]2O[C@H](C)[C@@H](O[C@H]3C[C@@](C)(O)[C@@H](O)[C@H](C)O3)[C@H](N(C)C)[C@H]2O)[C@@H](CC=O)C[C@@H](C)C(=O)/C=C/C(C)=C/[C@@H]1CO[C@@H]1O[C@H](C)[C@@H](O)[C@@H](OC)[C@H]1OC [Tylosin, reference compound] | 256 µg/mL (≈ 279 µM) | > 256 µg/mL | 8 µg/mL (≈ 8.73 µM) | > 256 µg/mL | 32 µg/mL (≈ 34.9 µM) | 32 µg/mL (≈ 34.9 µM) | 256 µg/mL (≈ 279 µM) | 16 µg/mL (≈ 17.5 µM) | 2 µg/mL (≈ 2.18 µM) | > 256 µg/mL | < 0.12 µg/mL | > 256 µg/mL | 2 µg/mL (≈ 2.18 µM) | < 0.12 µg/mL | < 0.12 µg/mL | 1.95 µg/mL (≈ 2.13 µM) |
| CC[C@H]1OC(=O)C[C@@H](O)[C@H](C)[C@@H](O[C@@H]2O[C@H](C)[C@@H](O)[C@H](N(C)C)[C@H]2O)[C@@H](CCN2CCCCC2)C[C@@H](C)C(=O)/C=C/C(C)=C/[C@@H]1CN1CCCCC1 [Zuprevo, reference compound] | 4 µg/mL (≈ 5.45 µM) | > 256 µg/mL | 64 µg/mL (≈ 87.2 µM) | > 256 µg/mL | 1 µg/mL (≈ 1.36 µM) | 1 µg/mL (≈ 1.36 µM) | 4 µg/mL (≈ 5.45 µM) | 64 µg/mL (≈ 87.2 µM) | 256 µg/mL (≈ 349 µM) | 32 µg/mL (≈ 43.6 µM) | 0.5 µg/mL (≈ 0.681 µM) | 8 µg/mL (≈ 10.9 µM) | 256 µg/mL (≈ 349 µM) | < 0.12 µg/mL | < 0.12 µg/mL | 1.95 µg/mL (≈ 2.66 µM) |
